Assay results: ChEMBL document CHEMBL3112426, “Discovery of a new binding site on human choline kinase α1: design, synthesis, crystallographic studies, and biological evaluation of asymmetrical bispyridinium derivatives” (J Med Chem, 2014)
Calls of active or inactive are those of the source. The calls are words filed in the database; no cut-off is given here.

Legend:
HeLa [1] = assay: Antiproliferative activity against human HeLa cells after 48 hrs by MTT assay; assay type: functional, cell-based
[2] = Inhibition of choline kinase in human HepG2 cells assessed as incorporation of [14C] from [methyl-14C]choline into phosphocholine after 20 mins by liquid scintillation counting analysis; assay type: cell-based
HeLa [3] = assay: Induction of apoptosis in human HeLa cells assessed as upregulation of caspase-3 protein expression after 12 to 48 hrs by Western blot analysis; assay type: functional, cell-based
HeLa [4] = assay: Cell cycle arrest in human HeLa cells assessed as accumulation at G2/M phase at 10 uM after 24 hrs by FACS flow cytometric analysis (reference value: 3.9 +/- 0.10%); assay type: functional
HeLa [5] = assay: Cell cycle arrest in human HeLa cells assessed as accumulation at G0/G1 phase at 10 uM after 24 hrs by FACS flow cytometric analysis (reference value: 69.9 +/- 2.41%); assay type: functional
Choline kinase alpha = Choline kinase alpha (Homo sapiens, UniProt P35790); assay: Binding affinity to human CK-alpha1 by tryptophan fluorescence spectroscopic analysis
Choline kinase alpha, sequence (P35790 whole entry): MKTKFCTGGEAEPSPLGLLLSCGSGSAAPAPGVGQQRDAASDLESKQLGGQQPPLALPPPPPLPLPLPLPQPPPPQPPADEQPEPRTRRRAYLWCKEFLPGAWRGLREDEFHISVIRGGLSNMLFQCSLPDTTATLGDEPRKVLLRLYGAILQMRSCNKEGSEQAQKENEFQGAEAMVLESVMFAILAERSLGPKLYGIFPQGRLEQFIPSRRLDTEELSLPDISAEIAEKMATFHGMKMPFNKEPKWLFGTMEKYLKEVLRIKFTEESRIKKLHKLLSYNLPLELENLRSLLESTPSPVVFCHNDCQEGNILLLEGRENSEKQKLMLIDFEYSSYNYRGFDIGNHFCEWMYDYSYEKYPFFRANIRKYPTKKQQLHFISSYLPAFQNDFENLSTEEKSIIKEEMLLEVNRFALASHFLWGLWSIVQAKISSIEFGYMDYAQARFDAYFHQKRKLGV

HeLa [6] = assay: Induction of apoptosis in human HeLa cells at 10 uM after 24 hrs by annexin V-FITC/propidium iodide staining-based FACS flow cytometric analysis; assay type: functional, cell-based
HeLa [7] = assay: Cell cycle arrest in human HeLa cells assessed as accumulation at S phase at 10 uM after 24 hrs by FACS flow cytometric analysis (reference value: 25 +/- 2.53%); assay type: functional
Homo sapiens = organism: Homo sapiens; assay: Selectivity ratio of Kd for human CK-beta to Kd for human CK-alpha1
[8] = target: Choline/ethanolamine kinase (Homo sapiens, UniProt Q9Y259); assay: Binding affinity to human CK-beta by tryptophan fluorescence spectroscopic analysis
Choline/ethanolamine kinase, sequence (Q9Y259 whole entry): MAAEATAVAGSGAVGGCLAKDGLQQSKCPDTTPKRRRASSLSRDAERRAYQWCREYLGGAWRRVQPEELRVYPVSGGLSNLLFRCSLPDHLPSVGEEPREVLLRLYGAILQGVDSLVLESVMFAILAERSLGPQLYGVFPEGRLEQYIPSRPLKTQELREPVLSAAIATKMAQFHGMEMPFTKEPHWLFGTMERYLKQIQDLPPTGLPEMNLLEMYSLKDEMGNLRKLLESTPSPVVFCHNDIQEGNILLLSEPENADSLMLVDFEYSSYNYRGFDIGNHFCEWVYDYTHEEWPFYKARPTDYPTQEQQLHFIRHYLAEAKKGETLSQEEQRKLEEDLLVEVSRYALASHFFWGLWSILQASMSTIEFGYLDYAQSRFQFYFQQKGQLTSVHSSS

HeLa [9] = assay: Induction of apoptosis in human HeLa cells at 10 uM after 24 hrs by annexin V-FITC/propidium iodide staining-based FACS flow cytometric analysis (reference value: 14.8%); assay type: functional

Row | Compound | IC50 (HeLa [1]) | IC50 [2] [µM] | Activity (HeLa [3]) | Activity (HeLa [4]) [%] | Activity (HeLa [5]) [%] | Kd (Choline kinase alpha) [µM] | Activity (HeLa [6]) | Activity (HeLa [7]) [%] | Selectivity ratio (Homo sapiens) | Kd [8] [µM] | Activity (HeLa [9]) [%]
1 | CN(C)c1cc[n+](Cc2ccc(C[n+]3ccc(N(C)c4ccc(Cl)cc4)cc3)cc2)cc1 | 24.6 µM | 0.9 | – | – | – | – | – | – | – | – | –
2 | CC(=O)O[C@H]1C(=O)[C@@]2(C)[C@H]([C@H](OC(=O)c3ccccc3)[C@]3(O)C[C@H](OC(=O)[C@H](O)[C@@H](NC(=O)c4ccccc4)c4ccccc4)C(C)=C1C3(C)C)[C@]1(OC(C)=O)CO[C@@H]1C[C@@H]2O [PACLITAXEL] | 8 ng/mL | – | Dose-dependent effect | – | – | – | – | – | – | – | –
3 | CN(C)c1cc[n+](Cc2ccc(CCc3ccc(C[n+]4ccc(N5CCCC5)cc4)cc3)cc2)cc1.[Br-].[Br-] | 8.6 µM | 1.2 | – | 2.6 | 72.5 | 0.4 | Active | 24.9 | – | – | –
4 | CN(C)c1cc[n+](Cc2ccc(CCc3ccc(C[n+]4ccc(N(C)c5ccc(Cl)cc5)cc4)cc3)cc2)cc1.[Br-].[Br-] | 1.3 µM | 0.7 | – | 1.8 | 83.3 | – | Active | 14.9 | – | – | –
5 | CN(C)c1cc[n+](Cc2ccc(CCCCc3ccc(C[n+]4ccc(N(C)c5ccc(Cl)cc5)cc4)cc3)cc2)cc1.[Br-].[Br-] | 1.9 µM | 1.2 | Dose-dependent effect | 0.9 | 85.9 | – | Active | 12.8 | 200 | 22 | 55.6
6 | CN(c1ccc(Cl)cc1)c1cc[n+](Cc2ccc(-c3ccc(C[n+]4ccc(N5CCCC5)cc4)cc3)cc2)cc1.[Br-].[Br-] | 4.1 µM | 2.2 | – | 3.1 | 73.1 | – | Active | 23.8 | – | – | –
7 | CN(C)c1cc[n+](Cc2ccc(-c3ccc(C[n+]4ccc(N5CCCC5)cc4)cc3)cc2)cc1.[Br-].[Br-] | 3.7 µM | 0.8 | – | 2.7 | 72.8 | – | Active | 24.5 | – | – | –
8 | CN(c1ccc(Cl)cc1)c1cc[n+](Cc2ccc(CCCCc3ccc(C[n+]4ccc(N5CCCC5)cc4)cc3)cc2)cc1.[Br-].[Br-] | 2.1 µM | 1.5 | – | 1.3 | 83.3 | – | Active | 15.4 | – | – | –
9 | CN(C)c1cc[n+](Cc2ccc(CCCCc3ccc(C[n+]4ccc(N5CCCC5)cc4)cc3)cc2)cc1.[Br-].[Br-] | 2.1 µM | 0.9 | – | 2.8 | 77.8 | – | Active | 19.2 | – | – | –
10 | CN(c1ccc(Cl)cc1)c1cc[n+](Cc2ccc(C[n+]3ccc(N4CCCC4)cc3)cc2)cc1 | 48.1 µM | 0.6 | – | – | – | – | – | – | – | – | –
11 | CN(C)c1cc[n+](Cc2ccc(C[n+]3ccc(N4CCCC4)cc3)cc2)cc1 | 15.9 µM | 8 | – | – | – | – | – | – | – | – | –
12 | CN(C)c1cc[n+](Cc2ccc(-c3ccc(C[n+]4ccc(N(C)c5ccc(Cl)cc5)cc4)cc3)cc2)cc1 | 11.7 µM | 1.5 | – | – | – | 0.62 | – | – | – | – | –
13 | CN(c1ccc(Cl)cc1)c1cc[n+](Cc2ccc(CCc3ccc(C[n+]4ccc(N5CCCC5)cc4)cc3)cc2)cc1.[Br-].[Br-] | 9.4 µM | 2.5 | – | 2.2 | 77 | – | Active | 20.8 | – | – | –
